In ChEMBL document CHEMBL1131794, “The synthesis and evaluation of 6-alkylidene-2'beta-substituted penam sulfones as beta-lactamase inhibitors” (Bioorg Med Chem Lett, 1999):

Assays:
Beta-lactamase TEM = Beta-lactamase TEM (Escherichia coli, UniProt P62593); test: Inhibitory activity against serine Beta-lactamase TEM derived from […]; type: single protein
Beta-lactamase [1] = biological target: T1, Beta-lactamase (Staphylococcus aureus, UniProt P00807); test: Inhibitory activity against serine beta-lactamase, PC1 (class A) derived from Staphylococcus aureus
Beta-lactamase [2] = biological target: T1, Beta-lactamase; test: Inhibitory activity against serine Beta-lactamase derived from Staphylococcus aureus
Escherichia coli [3] = test: In vitro synergistic activity against Escherichia coli C600N + (ampR ampC); type: functional; further: test concentration or dose not given here
Klebsiella pneumoniae [4] = test: In vitro synergistic activity against Klebsiella pneumoniae GC 6269 clinical isolate; type: functional; further: test concentration or dose not given here
Pseudomonas aeruginosa = test: In vitro synergistic activity against Pseudomonas aeruginosa Ps505A1 (AmpC derepressed); type: functional; further: test concentration or dose not given here
Escherichia coli [5] = test: In vitro synergistic activity against Escherichia coli C600N + (SHV-1); type: functional
Klebsiella pneumoniae [6] = test: In vitro synergistic activity against Klebsiella pneumoniae KC2 (TEM-10); type: functional; further: test concentration or dose not given here
Escherichia coli [7] = test: In vitro synergistic activity against Escherichia coli 4100 + (CCRA); type: functional
Enterobacter cloacae [8] = test: In vitro synergistic activity against Enterobacter cloacae (Imi-1+AmpC); type: functional
Escherichia coli [9] = test: In vitro synergistic activity against Escherichia coli ATCC 25922 (no beta-lactamase); type: functional; further: test concentration or dose not given here
Escherichia coli [10] = test: In vitro synergistic activity against Escherichia coli 4100 (no beta-lactamase); type: functional
Escherichia coli [11] = test: In vitro synergistic activity against Escherichia coli C600N + (PSE-1); type: functional
Serratia marcescens = test: In vitro synergistic activity against Serratia marcescens GC 4132 (Amp C); type: functional; further: test concentration or dose not given here
Escherichia coli [12] = test: In vitro synergistic activity against Escherichia coli C600N + (L1); type: functional
Escherichia coli [13] = test: In vitro synergistic activity against Escherichia coli 300 + (ampR ampC); type: functional; further: test concentration or dose not given here
Escherichia coli [14] = test: In vitro synergistic activity against Escherichia coli 300 + (TEM-1); type: functional
[15] = tested on: Stenotrophomonas maltophilia; test: In vitro synergistic activity against Stenotrophomonas maltophilia 1712(L1); type: functional; further: test concentration or dose not given here
Escherichia coli [16] = test: In vitro synergistic activity against Escherichia coli C600N + (P99); type: functional
Enterobacter cloacae [17] = test: In vitro synergistic activity against Enterobacter cloacae SC12629 (AmpC inducible); type: functional; further: test concentration or dose not given here
Escherichia coli [18] = test: In vitro synergistic activity against Escherichia coli C600N + (Sme-1); type: functional
Aeromonas sobria = test: In vitro synergistic activity against Aeromonas sobria (Asb A, OXA-12, Asb M); type: functional; further: test concentration or dose not given here
Escherichia coli [19] = test: In vitro synergistic activity against Escherichia coli C600N + (TEM-10); type: functional
Escherichia coli [20] = test: In vitro synergistic activity against Escherichia coli C600N + (IRT-2); type: functional; further: test concentration or dose not given here
Escherichia coli [21] = test: In vitro synergistic activity against Escherichia coli 300 (no beta-lactamase, imp mutant); type: functional
Escherichia coli [22] = test: In vitro synergistic activity against Escherichia coli GC6267 clinical isolate; type: functional
Klebsiella pneumoniae [23] = test: In vitro synergistic activity against Klebsiella pneumoniae (ACT-1 + 3 blas, IPM=S); type: functional; further: test concentration or dose not given here
Escherichia coli [24] = test: In vitro synergistic activity against Escherichia coli C600N + (SHV-4); type: functional
Escherichia coli [25] = test: In vitro synergistic activity against Escherichia coli C600N + (OXA-10) {PSE-2}; type: functional
Escherichia coli [26] = test: In vitro synergistic activity against Escherichia coli ATCC 35218 (TEM-1); type: functional
Klebsiella aerogenes = test: In vitro synergistic activity against Enterobacter aerogenes GC 6268 clinical isolate; type: functional; further: test concentration or dose not given here
Escherichia coli [27] = test: In vitro synergistic activity against Escherichia coli GC6265 (TEM-1); type: functional
Escherichia coli [28] = test: In vitro synergistic activity against Escherichia coli C600N (no beta-lactamase); type: functional
Escherichia coli [29] = test: In vitro synergistic activity against Escherichia coli C600N + (TEM-1); type: functional
Escherichia coli [30] = test: In vitro synergistic activity against Escherichia coli GC 6266 clinical isolate; type: functional
Escherichia coli [31] = test: In vitro synergistic activity against Escherichia coli C600N + (MIR-1); type: functional
Staphylococcus aureus = test: In vitro synergistic activity against Staphylococcus aureus (PC1); type: functional; further: test concentration or dose not given here
Escherichia coli [32] = test: In vitro synergistic activity against Escherichia coli C600N + (Imi-1); type: functional

T1 sequence (P00807 whole entry): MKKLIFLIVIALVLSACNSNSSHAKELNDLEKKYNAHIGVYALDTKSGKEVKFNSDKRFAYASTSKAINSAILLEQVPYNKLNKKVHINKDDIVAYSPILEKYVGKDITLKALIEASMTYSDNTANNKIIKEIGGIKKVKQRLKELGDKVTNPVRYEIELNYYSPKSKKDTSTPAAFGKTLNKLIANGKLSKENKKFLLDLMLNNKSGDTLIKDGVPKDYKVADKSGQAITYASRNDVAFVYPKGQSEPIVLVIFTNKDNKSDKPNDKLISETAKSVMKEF
Chain of Beta-lactamase TEM (P62593 whole entry): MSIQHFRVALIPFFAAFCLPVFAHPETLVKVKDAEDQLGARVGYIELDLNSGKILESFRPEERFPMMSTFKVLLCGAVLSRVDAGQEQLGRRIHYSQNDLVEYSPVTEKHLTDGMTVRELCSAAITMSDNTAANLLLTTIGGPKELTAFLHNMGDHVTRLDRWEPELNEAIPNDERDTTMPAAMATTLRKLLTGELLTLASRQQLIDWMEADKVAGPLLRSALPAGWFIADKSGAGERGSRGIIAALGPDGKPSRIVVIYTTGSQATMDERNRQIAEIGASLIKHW

Compound: COC(=O)/C=C1/C(=O)N2C1S(=O)(=O)[C@@](C)(COC(=O)CSc1nnnn1C)[C@@H]2C(=O)O (some centres undefined)
- IC50 (Beta-lactamase TEM): 2370 nM
- IC50 (Beta-lactamase [1]): 940 µM
- IC50 (Beta-lactamase [2]): 13.2 µM

Compound: C[C@]1(CCl)[C@H](C(=O)O)N2C(=O)/C(=C/C(=O)O)C2S1(=O)=O (some centres undefined)
- IC50 (Beta-lactamase TEM): 120000 nM
- IC50 (Beta-lactamase [1]): 2100 µM
- IC50 (Beta-lactamase [2]): 527 µM

Compound: C[C@]1(/C=C/C#N)[C@H](C(=O)O)N2C(=O)/C(=C/C(=O)O)C2S1(=O)=O (some centres undefined)
- IC50 (Beta-lactamase TEM): 21700 nM
- IC50 (Beta-lactamase [1]): 504 µM
- IC50 (Beta-lactamase [2]): 6.76 µM

Compound: CC1(C)[C@H](C(=O)O)N2C(=O)/C(=C/C(=O)O)C2S1(=O)=O (some centres undefined)
- IC50 (Beta-lactamase TEM): 1800 nM
- IC50 (Beta-lactamase [1]): 108 µM
- IC50 (Beta-lactamase [2]): 4.5 µM

Compound: C[C@]1(COC=O)[C@H](C(=O)O)N2C(=O)/C(=C/C(=O)O)C2S1(=O)=O (some centres undefined)
- IC50 (Beta-lactamase [1]): 173 µM
- IC50 (Beta-lactamase [2]): 0.592 µM

Compound: CC(=O)OC[C@@]1(C)[C@H](C(=O)O)N2C(=O)/C(=C/C(=O)O)C2S1(=O)=O (some centres undefined)
- IC50 (Beta-lactamase TEM): 180 nM
- IC50 (Beta-lactamase [1]): 76.5 µM
- IC50 (Beta-lactamase [2]): 0.708 µM

Compound: COC(=O)/C=C1/C(=O)N2[C@@H](C(=O)O)[C@](C)(COC(C)=O)S(=O)(=O)[C@H]12
- IC50 (Beta-lactamase TEM): 2720 nM
- IC50 (Beta-lactamase [2]): 9.51 µM

Compound: C[C@]1(COC(=O)CCl)[C@H](C(=O)O)N2C(=O)/C(=C/C(=O)O)[C@H]2S1(=O)=O
- IC50 (Beta-lactamase TEM): 196 nM
- IC50 (Beta-lactamase [1]): 7.2 µM

Compound: CC(C)(O/N=C(\C(=O)N[C@@H]1C(=O)N2C(C(=O)[O-])=C(C[n+]3ccccc3)CS[C@H]12)c1csc(N)n1)C(=O)O [CEFTAZIDIME]
- MIC (Escherichia coli [3]): 64 µg/mL
- MIC (Klebsiella pneumoniae [4]): 0.5 µg/mL
- MIC (Pseudomonas aeruginosa): 32 µg/mL
- MIC (Escherichia coli [5]): 0.5 µg/mL
- MIC (Klebsiella pneumoniae [6]): 64 µg/mL
- MIC (Escherichia coli [7]): > 64 µg/mL
- MIC (Enterobacter cloacae [8]): 0.5 µg/mL
- MIC (Escherichia coli [9]): < 0.06 µg/mL
- MIC (Escherichia coli [10]): < 0.06 µg/mL
- MIC (Escherichia coli [11]): 0.25 µg/mL
- MIC (Serratia marcescens): 0.25 µg/mL
- MIC (Escherichia coli [12]): 32 µg/mL
- MIC (Escherichia coli [13]): 4 µg/mL
- MIC (Escherichia coli [14]): < 0.06 µg/mL
- MIC [15]: > 64 µg/mL
- MIC (Escherichia coli [16]): 64 µg/mL
- MIC (Enterobacter cloacae [17]): > 64 µg/mL
- MIC (Escherichia coli [18]): 0.5 µg/mL
- MIC (Aeromonas sobria): < 0.06 µg/mL
- MIC (Escherichia coli [19]): 64 µg/mL
- MIC (Escherichia coli [20]): 0.25 µg/mL
- MIC (Escherichia coli [21]): < 0.06 µg/mL
- MIC (Escherichia coli [22]): 0.25 µg/mL
- MIC (Klebsiella pneumoniae [23]): > 64 µg/mL
- MIC (Escherichia coli [24]): > 64 µg/mL
- MIC (Escherichia coli [25]): 0.12 µg/mL
- MIC (Escherichia coli [26]): < 0.06 µg/mL
- MIC (Klebsiella aerogenes): > 64 µg/mL
- MIC (Escherichia coli [27]): < 0.06 µg/mL
- MIC (Escherichia coli [28]): 0.12 µg/mL
- MIC (Escherichia coli [29]): 0.12 µg/mL
- MIC (Escherichia coli [30]): 0.25 µg/mL
- MIC (Escherichia coli [31]): 64 µg/mL
- MIC (Staphylococcus aureus): 4 µg/mL
- MIC (Escherichia coli [32]): 1 µg/mL

Compound: C[C@@H](O)[C@H]1C(=O)N2C(C(=O)O)=C(SCCNC=N)C[C@H]12 [IMIPENEM ANHYDROUS]
- MIC (Escherichia coli [3]): 0.5 µg/mL
- MIC (Klebsiella pneumoniae [4]): 0.12 µg/mL
- MIC (Pseudomonas aeruginosa): 0.5 µg/mL
- MIC (Escherichia coli [5]): 0.12 µg/mL
- MIC (Klebsiella pneumoniae [6]): < 0.06 µg/mL
- MIC (Escherichia coli [7]): 16 µg/mL
- MIC (Enterobacter cloacae [8]): > 64 µg/mL
- MIC (Escherichia coli [9]): < 0.06 µg/mL
- MIC (Escherichia coli [10]): 0.12 µg/mL
- MIC (Escherichia coli [11]): 0.12 µg/mL
- MIC (Serratia marcescens): 1 µg/mL
- MIC (Escherichia coli [12]): 2 µg/mL
- MIC (Escherichia coli [13]): < 0.06 µg/mL
- MIC (Escherichia coli [14]): < 0.06 µg/mL
- MIC [15]: > 64 µg/mL
- MIC (Escherichia coli [16]): 0.25 µg/mL
- MIC (Enterobacter cloacae [17]): 1 µg/mL
- MIC (Escherichia coli [18]): 64 µg/mL
- MIC (Aeromonas sobria): > 64 µg/mL
- MIC (Escherichia coli [19]): 0.12 µg/mL
- MIC (Escherichia coli [20]): 0.25 µg/mL
- MIC (Escherichia coli [22]): 0.12 µg/mL
- MIC (Klebsiella pneumoniae [23]): 1 µg/mL
- MIC (Escherichia coli [24]): 0.12 µg/mL
- MIC (Escherichia coli [25]): 0.12 µg/mL
- MIC (Escherichia coli [26]): < 0.06 µg/mL
- MIC (Klebsiella aerogenes): 1 µg/mL
- MIC (Escherichia coli [27]): < 0.06 µg/mL
- MIC (Escherichia coli [29]): 0.12 µg/mL
- MIC (Escherichia coli [30]): 0.25 µg/mL
- MIC (Escherichia coli [31]): 0.5 µg/mL
- MIC (Staphylococcus aureus): < 0.06 µg/mL
- MIC (Escherichia coli [32]): 4 µg/mL

Compound: CCN1CCN(C(=O)N[C@@H](C(=O)N[C@@H]2C(=O)N3[C@@H]2SC(C)(C)[C@@H]3C(=O)O)c2ccccc2)C(=O)C1=O [PIPERACILLIN]
- MIC (Escherichia coli [3]): > 64 µg/mL
- MIC (Klebsiella pneumoniae [4]): > 64 µg/mL
- MIC (Pseudomonas aeruginosa): > 64 µg/mL
- MIC (Escherichia coli [5]): 4 µg/mL
- MIC (Klebsiella pneumoniae [6]): > 64 µg/mL
- MIC (Escherichia coli [7]): > 64 µg/mL
- MIC (Enterobacter cloacae [8]): > 64 µg/mL
- MIC (Escherichia coli [9]): 2 µg/mL
- MIC (Escherichia coli [10]): < 0.06 µg/mL
- MIC (Escherichia coli [11]): 32 µg/mL
- MIC (Serratia marcescens): 64 µg/mL
- MIC (Escherichia coli [12]): > 64 µg/mL
- MIC (Escherichia coli [13]): 16 µg/mL
- MIC (Escherichia coli [14]): > 64 µg/mL
- MIC [15]: > 64 µg/mL
- MIC (Escherichia coli [16]): > 64 µg/mL
- MIC (Enterobacter cloacae [17]): > 64 µg/mL
- MIC (Escherichia coli [18]): > 64 µg/mL
- MIC (Aeromonas sobria): 64 µg/mL
- MIC (Escherichia coli [20]): > 64 µg/mL
- MIC (Escherichia coli [22]): > 64 µg/mL
- MIC (Klebsiella pneumoniae [23]): > 64 µg/mL
- MIC (Escherichia coli [26]): > 64 µg/mL
- MIC (Klebsiella aerogenes): > 64 µg/mL
- MIC (Escherichia coli [27]): > 64 µg/mL
- MIC (Escherichia coli [28]): 2 µg/mL
- MIC (Escherichia coli [30]): > 64 µg/mL
- MIC (Escherichia coli [31]): 64 µg/mL
- MIC (Staphylococcus aureus): > 64 µg/mL
- MIC (Escherichia coli [32]): > 64 µg/mL
